Laboratory results reported in the supplement of paper PMC10307832.

Legend:
Assay in all cases: relative viability (nuclei count vs DMSO), 5 days (fraction); higher = more cells survive
Bexarotene + Pemetrexed = compound: C=C(c1ccc(C(=O)O)cc1)c1cc2c(cc1C)C(C)(C)CCC2(C)C [Bexarotene] + Nc1nc2[nH]cc(CCc3ccc(C(=O)N[C@@H](CCC(=O)O)C(=O)O)cc3)c2c(=O)[nH]1 [Pemetrexed] (partner 0.2 µM)
Summary of the method: (§1)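 Values are medians from duplicate plates. Each reflects relative viability, defined as the nuclei count of treated wells over that of vehicle wells. Lung cancer cell lines in 1536-well plates were pin-tool dosed one day after seeding with one drug alone or with a fixed anchor-drug dose plus five library-drug doses (not always all listed) in √10 steps, then fixed, stained and imaged at 4× after 5 days.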

Bexarotene + OSI-027 = compound: C=C(c1ccc(C(=O)O)cc1)c1cc2c(cc1C)C(C)(C)CCC2(C)C [Bexarotene] + COc1cccc2cc(-c3nc([C@H]4CC[C@H](C(=O)O)CC4)n4ncnc(N)c34)[nH]c12 [OSI-027] (partner 0.5 µM)
Summary of the method: as §1

Bexarotene + Foretinib = compound: C=C(c1ccc(C(=O)O)cc1)c1cc2c(cc1C)C(C)(C)CCC2(C)C [Bexarotene] + COc1cc2c(Oc3ccc(NC(=O)C4(C(=O)Nc5ccc(F)cc5)CC4)cc3F)ccnc2cc1OCCCN1CCOCC1 [Foretinib] (partner 0.25 µM)
Summary of the method: as §1

Bexarotene + AZD7762 = compound: C=C(c1ccc(C(=O)O)cc1)c1cc2c(cc1C)C(C)(C)CCC2(C)C [Bexarotene] + NC(=O)Nc1cc(-c2cccc(F)c2)sc1C(=O)N[C@H]1CCCNC1 [AZD7762] (partner 0.2 µM)
Summary of the method: as §1

Cell Line | relative viability (Bexarotene + Pemetrexed; first compound 0.08 µM) | relative viability (Bexarotene + Pemetrexed; first compound 0.253 µM) | relative viability (Bexarotene + Pemetrexed; first compound 0.8 µM) | relative viability (Bexarotene + Pemetrexed; first compound 2.53 µM) | relative viability (Bexarotene + Pemetrexed; first compound 8 µM) | relative viability (Bexarotene + OSI-027; first compound 0.08 µM) | relative viability (Bexarotene + OSI-027; first compound 0.253 µM) | relative viability (Bexarotene + OSI-027; first compound 0.8 µM) | relative viability (Bexarotene + OSI-027; first compound 2.53 µM) | relative viability (Bexarotene + OSI-027; first compound 8 µM) | relative viability (Bexarotene + Foretinib; first compound 0.08 µM) | relative viability (Bexarotene + Foretinib; first compound 0.253 µM) | relative viability (Bexarotene + Foretinib; first compound 0.8 µM) | relative viability (Bexarotene + Foretinib; first compound 2.53 µM) | relative viability (Bexarotene + Foretinib; first compound 8 µM) | relative viability (Bexarotene + AZD7762; first compound 0.08 µM) | relative viability (Bexarotene + AZD7762; first compound 0.253 µM) | relative viability (Bexarotene + AZD7762; first compound 0.8 µM) | relative viability (Bexarotene + AZD7762; first compound 2.53 µM) | relative viability (Bexarotene + AZD7762; first compound 8 µM)
COR-L 105 | 0.983 | 1.16 | 1.14 | 1.17 | 1.14 | 0.765 | 0.677 | 0.818 | 0.8 | 0.613 | 1.07 | 1.05 | 1.07 | 1.12 | 0.833 | – | – | – | – | –
LK-2 | 0.353 | 0.292 | 0.285 | 0.275 | 0.238 | 0.262 | 0.207 | 0.237 | 0.202 | 0.255 | 1.42 | 1.27 | 1.54 | – | 1.68 | 0.675 | 0.516 | 0.547 | 0.433 | 0.418
NCI-H727 | – | – | – | – | – | 0.63 | 0.657 | 0.478 | 0.465 | 0.612 | 1.09 | 1.12 | 0.875 | 0.859 | 0.808 | 0.537 | 0.635 | 0.598 | 0.617 | 0.633
RERF-LC-KJ | 0.506 | 0.513 | 0.501 | 0.506 | 0.47 | 0.522 | 0.572 | 0.539 | 0.562 | 0.506 | 0.839 | 0.823 | 0.715 | 0.795 | 0.777 | 0.97 | 0.918 | 0.873 | 1.03 | 0.849
NCI-H2023 | 0.283 | 0.251 | 0.202 | 0.202 | 0.196 | 0.384 | 0.391 | 0.439 | 0.311 | 0.378 | 0.841 | 0.799 | 0.899 | 0.775 | 0.68 | – | – | – | – | –
NCI-H322M | 0.698 | 0.611 | 0.574 | 0.626 | 0.695 | 0.698 | 0.351 | 0.637 | 0.585 | 0.623 | 1.06 | 1.14 | 0.946 | 0.977 | 0.978 | 0.518 | 0.645 | 0.585 | 0.548 | 0.568
NCI-H1666 | 0.8 | 0.912 | 0.736 | 0.844 | 0.7 | 0.774 | 0.759 | 0.566 | 0.747 | 0.593 | 0.974 | 0.937 | 0.85 | 0.867 | 0.833 | 1.02 | 0.839 | 0.82 | 0.817 | 0.895
SW 900 | 0.509 | 0.465 | 0.456 | 0.454 | 0.477 | 0.673 | 0.739 | 0.739 | 0.55 | 0.451 | 0.991 | 0.881 | 0.901 | 1 | 0.862 | 0.652 | 0.511 | 0.453 | 0.518 | 0.454
NCI-H2087 | 0.681 | 0.743 | 0.696 | 0.652 | 0.549 | 0.643 | 0.693 | 0.663 | 0.565 | 0.448 | 1.3 | 1.1 | 1.12 | 0.982 | 1.03 | 1.33 | 1.3 | 1.2 | 1.35 | 1.16
LU99A | 0.19 | 0.194 | 0.206 | 0.189 | 0.171 | 0.325 | 0.361 | 0.286 | 0.316 | 0.315 | 0.908 | 0.865 | 0.898 | 0.931 | 0.809 | 0.356 | 0.444 | 0.391 | 0.404 | 0.36
HCC-366 | 0.203 | 0.14 | 0.2 | 0.141 | 0.17 | 1.2 | 0.968 | 0.974 | 0.888 | 0.913 | 0.94 | 0.989 | 0.962 | 0.969 | 0.834 | 0.412 | 0.397 | 0.284 | 0.279 | 0.358
EKVX | 0.423 | 0.54 | 0.355 | 0.43 | 0.362 | 0.706 | 0.661 | 0.698 | 0.63 | 0.648 | 0.666 | 0.915 | 0.925 | 0.822 | 0.711 | 0.804 | 0.848 | 0.822 | 0.828 | 0.634
NCI-H2342 | 0.827 | 0.739 | 0.747 | 0.825 | 0.797 | 0.612 | 0.6 | 0.553 | 0.686 | 0.707 | 1.01 | 1.02 | 1.09 | 1.12 | 1.05 | 0.545 | 0.5 | 0.494 | 0.488 | 0.718
NCI-H1755 | 0.451 | 0.458 | 0.498 | 0.452 | 0.425 | 0.777 | 0.741 | 0.675 | 0.637 | 0.611 | 0.934 | 0.953 | 0.885 | 0.937 | 0.852 | 0.536 | 0.6 | 0.439 | 0.569 | 0.54
NCI-H647 | 0.177 | 0.155 | 0.153 | 0.157 | 0.174 | 0.636 | 0.627 | 0.601 | 0.573 | 0.624 | 1.32 | 1.42 | 1.4 | 1.32 | 1.04 | 0.429 | 0.463 | 0.459 | 0.272 | 0.33
LC-2-ad | 0.294 | 0.279 | 0.28 | 0.247 | 0.302 | 0.894 | 0.944 | 0.779 | 0.8 | 0.881 | 0.976 | 1.01 | 0.969 | 0.982 | 0.893 | 0.87 | 0.907 | 0.875 | 0.867 | 0.928
